The NIST ThermoML archive (doi:10.1016/j.jct.2015.11.009)

Assays:
[1] = refractive index (Na D-line) (dimensionless); xn = mol fraction of the nth substance listed; conditions: 100 kPa, Liquid, Standard Abbe refractometry
[2] = xn = mol fraction of the nth substance listed; conditions: 100 kPa, Liquid; for speed of sound: Frequency=3 MHz, Sing-around technique in a fixed-path interferometer; for mass density: Vibrating tube method

O=C1CCCN1 [2-pyrrolidinone] + CCCCn1cc[n+](C)c1.F[B-](F)(F)F
Conditions	mass density, [2] [kg/m3]	refractive index, [1]	speed of sound, [2] [m/s]
298.15 K, x2 = 0	1107.16	1.48591	1634.4
298.15 K, x2 = 0.102	1128.93	1.47414	1625.5
298.15 K, x2 = 0.1951	1143.99	1.46433	1618
298.15 K, x2 = 0.3046	1155.01	1.45472	1608.3
298.15 K, x2 = 0.3886	1163.44	1.4487	1601
298.15 K, x2 = 0.5262	1173.25	1.44033	1590.7
298.15 K, x2 = 0.6185	1179.38	1.43543	1584.4
298.15 K, x2 = 0.69	1183.57	1.43222	1579.5
298.15 K, x2 = 0.7844	1188.69	1.4283	1574.3
298.15 K, x2 = 0.8861	1193.47	1.42468	1569.2
303.15 K, x2 = 0	1103.07	1.48403	1618
303.15 K, x2 = 0.102	1124.98	1.47243	1610.2
303.15 K, x2 = 0.1951	1139	1.46228	1604.1
303.15 K, x2 = 0.3046	1151.24	1.45316	1594.5
303.15 K, x2 = 0.3886	1159.65	1.44722	1587.5
303.15 K, x2 = 0.5262	1169.51	1.43885	1578.1
303.15 K, x2 = 0.6185	1175.68	1.43414	1572.5
303.15 K, x2 = 0.69	1179.91	1.43084	1567.2
303.15 K, x2 = 0.7844	1185.05	1.42696	1562.2
303.15 K, x2 = 0.8861	1189.85	1.42338	1557.3
308.15 K, x2 = 0	1098.99	1.48218	1601.6
308.15 K, x2 = 0.102	1121.03	1.47067	1595.5
308.15 K, x2 = 0.1951	1135.12	1.461	1589.2
308.15 K, x2 = 0.3046	1147.43	1.45161	1580.2
308.15 K, x2 = 0.3886	1155.87	1.44571	1573.8
308.15 K, x2 = 0.5262	1165.8	1.43737	1565.4
308.15 K, x2 = 0.6185	1172.01	1.43271	1560.1
308.15 K, x2 = 0.69	1176.26	1.42943	1554.7
308.15 K, x2 = 0.7844	1181.42	1.4256	1550
308.15 K, x2 = 0.8861	1186.26	1.42205	1545.4
313.15 K, x2 = 0	1094.9	1.48033	1585.4
313.15 K, x2 = 0.102	1117.09	1.46895	1580.5
313.15 K, x2 = 0.1951	1131.25	1.45929	1575
313.15 K, x2 = 0.3046	1143.62	1.44998	1566.5
313.15 K, x2 = 0.3886	1152.11	1.44418	1560.7
313.15 K, x2 = 0.5262	1162.12	1.43589	1552.7
313.15 K, x2 = 0.6185	1168.35	1.43125	1547.9
313.15 K, x2 = 0.69	1172.63	1.42805	1542.5
313.15 K, x2 = 0.7844	1177.81	1.4242	1537.9
313.15 K, x2 = 0.8861	1182.68	1.42069	1533.5
318.15 K, x2 = 0	1090.82	1.47841	1570.4
318.15 K, x2 = 0.102	1113.15	1.46715	1566
318.15 K, x2 = 0.1951	1127.38	1.45813	1560.9
318.15 K, x2 = 0.3046	1139.83	1.44832	1553.8
318.15 K, x2 = 0.3886	1148.36	1.44261	1547.8
318.15 K, x2 = 0.5262	1158.47	1.43436	1541.2
318.15 K, x2 = 0.6185	1164.72	1.42972	1536.4
318.15 K, x2 = 0.69	1169.02	1.42665	1530.7
318.15 K, x2 = 0.7844	1174.23	1.42286	1526.2
318.15 K, x2 = 0.8861	1179.12	1.41928	1521.9
323.15 K, x2 = 0	1086.75	1.47649	1553.5
323.15 K, x2 = 0.102	1109.21	1.46522	1550
323.15 K, x2 = 0.1951	1123.52	1.45533	1545.8
323.15 K, x2 = 0.3046	1136.08	1.44663	1539.4
323.15 K, x2 = 0.3886	1144.62	1.44099	1534.3
323.15 K, x2 = 0.5262	1154.82	1.43282	1528
323.15 K, x2 = 0.6185	1161.11	1.42817	1524
323.15 K, x2 = 0.69	1165.45	1.42522	1519.2
323.15 K, x2 = 0.7844	1170.66	1.42148	1514.2
323.15 K, x2 = 0.8861	1175.58	1.41788	1510.2
